Measured values: patent US20240197596A1, “COMPOUNDS USEFUL AS HAIR DYES” (National University of Singapore, priority 2021, published 2024)
“And” between values parts separate entries of the source, which are not always exact repeats. Equal values may be shown once. “Also recorded” adds a separate entry of the source. Read-outs that look alike come from different tables or passages of the source.

Key:
HaCaT cells = assay: MTT assay on HaCaT cells; type: cell-based; details: Homo sapiens, 72 h
Method: HaCaT (human, adult, low calcium, high temperature, skin keratinocyte) cell suspension was adjusted to 5×10^3 cells per well and seeded in 96-well plates, then incubated at 37° C. with 5% CO2. After 24 h, 10 mM stock solutions of N1-N13 in autoclaved milli-Q water were prepared and serially diluted concentrations were added to the wells. Each concentration was performed in 6-replicates, and seeded wells with only media and no compound were used as controls while wells with only media were used as blanks. The plate was incubated for 72 h, after which 100 μL of MTT reagent was added and the plate was further incubated for 3 h before adding 100 μL of DMSO. Subsequently, the plate was shaken for 20 min, and then absorbance at 570 nm was determined using a Bio-Tek plate reader.

[1] = Skin permeation study, Franz diffusion cell; type: in vitro ADME, porcine; details: for Cumulative amount at 8th hour: 1% w/v in deionized water; for Permeated through skin into receptor / Recovered in donor compartment / Recovered in skin / Recovered in skin outside diffusion area / Recovered in skin swabs / Recovered on parafilm and in washes: mass balance
Method: In each Franz cell, a piece of pig ear skin prepared to a thickness of […] was clamped securely. 5 mL of PBS solution was added to the receiver compartment which was purged of air bubbles to ensure maximal contact of the skin piece with the solution. Donor solution was prepared by dissolving N1-N13 in deionized water at 1% w/v, and 900 μL was added to the donor compartment. The study was conducted for 8 h, and aliquots of 200 μL were removed from the receiver solution and topped up with fresh PBS at each timepoint of 15-minutes intervals for the first hour and every hour after that.
For mass balance, at the end of 8 h, skin pieces and swabs of the top and bottom surface of the skin were collected and stored in ACN for N1-N13 extraction. Donor solution and receiver solution were also collected.
The aliquot samples collected were subjected to 2-step extraction using 750 μL of dichloromethane (DCM). […] The solvent was dried using the TurboVap, and then reconstituted with 198 μL of 0.1% formic acid in 50% methanol in water and spiked with 2 μL of ANP (internal standard). The processed aliquot samples and mass balance samples were then sent for analysis using LC-MS/MS. The compounds' steady state fluxes and permeability coefficients were then calculated by fitting the solution to Fick's […] of diffusion at the steady state (linear part) of each experimental cumulative amount curve.

THP-1 cells = assay: MTT assay on THP-1 cells (CV75); type: cell-based, human; details: THP-1 cells, 24 h
Method: THP-1 (human acute monocytic leukaemia cell line) cell suspension was adjusted to 1×10^5 cells per well and seeded in 96-well plates. The plate was incubated at 37° C. with 5% CO2. After 24 h, 10 mM stock solutions of N1-N13 were prepared in autoclaved milli-Q water. A series of concentrations diluted in media was prepared and added to the wells. Each concentration was performed in 6-replicates, and seeded wells with only media and no compound were used as controls while wells with only media were used as blanks. The plate was incubated for 24 h, after which 100 μL of MTT reagent was added and the plate was further incubated for 3 h before adding 100 μL of DMSO. Subsequently, the plate was shaken for 20 min, and then absorbance at 570 nm was determined using a Bio-Tek plate reader. Percentage cell viability was calculated and CV75 values were determined.

Hair nuance test = assay: Hair nuance test; design: key to L* / a* / b*: CIELAB L*, a*, b* coordinates; key to ΔE (total colour difference to natural hair): ΔE = √((L*−L0)²+(a*−a0)²+(b*−b0)²) vs untreated hair; details: for eventual colour of bleached hair, Type A: Type A (Non-oxidative) formulation; for eventual colour of bleached hair, Type B: Type B (Oxidative, H2O2) formulation; for eventual colour of bleached hair, Type C: Type C (Oxidative with coupler resorcinol) formulation
Method: 35 g of bleaching powder was mixed with 50 mL of developer then applied onto undyed black hair (wrapped in aluminium foil to enhance the bleaching process) and left on for 45 min. The hair was then rinsed with deionized water and shampoo and left to dry. This process was repeated twice.
Hair dye formulations were prepared from N1-N13 according to methods reported (New Journal of Chemistry. 2019; 43(41):16188-99), and with the compositions stated in Table 11 Bleached hair samples were immersed into the respective formulations for 20 min, then air dried for 20 min. Then they were shampooed twice and treated with conditioner for 5 min.
SkinColorCatch (Delfin Technologies Ltd, Kuopio, Finland) was used to measure CIELAB tristimulus L*, a* and b* values of the dyed hair samples and baseline L0, a0, b0 values from untreated hair. The difference in colour tone (ΔH) and the total colour difference (ΔE) were then derived from the values obtained with the equations below:
ΔH=√{square root over ((a*−a0)^2+(b*−b0)^2)}
ΔE=√{square root over ((L*−L0)^2+(a*−a0)^2+(b*−b0)^2)}

[2] = Type C (Oxidative with coupler resorcinol)

Row | SMILES | Cumulative amount at 8th hour ([1]; 8 h) | Permeated through skin into receptor ([1]; 8 h) | Recovered in donor compartment ([1]; 8 h) | Recovered in skin ([1]; 8 h) | Recovered in skin outside diffusion area ([1]; 8 h) | Recovered in skin swabs ([1]; 8 h) | Recovered on parafilm and in washes ([1]; 8 h) | CV75 (concentration affording 75% cell viability), 1 × CV75 (THP-1 cells) [µg/mL] | L* (Hair nuance test; Type A (Non-oxidative)) | a* (Hair nuance test; Type A (Non-oxidative)) | b* (Hair nuance test; Type A (Non-oxidative)) | ΔE (total colour difference to natural hair) (Hair nuance test; Type A (Non-oxidative)) | ΔH (difference in colour tone) (Hair nuance test; Type A (Non-oxidative)) | eventual colour of bleached hair, Type A (Hair nuance test) | L* (Hair nuance test; Type B (Oxidative)) | a* (Hair nuance test; Type B (Oxidative)) | b* (Hair nuance test; Type B (Oxidative)) | ΔE (total colour difference to natural hair) (Hair nuance test; Type B (Oxidative)) | ΔH (difference in colour tone) (Hair nuance test; Type B (Oxidative)) | eventual colour of bleached hair, Type B (Hair nuance test) | other results
1 | N#CCOc1cc(N)ccc1N [Compound N6, 2-(2,5-diaminophenoxy)acetonitrile] | 0.0145 μg/cm^2 | <0.001 % of applied compound dose | 99.1 % of applied compound dose | 0.01 % of applied compound dose | 0.006 % of applied compound dose | 0.04 % of applied compound dose | 0.002 % of applied compound dose | 123.7 | 55.0 | 10.0 | 19.0 | 50.3 | 20.5 | light colours; also recorded: Rose pink | 15 | 4 | 5 | 8.2 | 5.6 | Dark brown | IC50 (HaCaT cells; HaCaT): > 1000 µM; L* (Hair nuance test; [2]): 13; a* (Hair nuance test; [2]): 5; b* (Hair nuance test; [2]): 4; ΔE (total colour difference to natural hair) (Hair nuance test; [2]): 7.1; ΔH (difference in colour tone) (Hair nuance test; [2]): 5.8; eventual colour of bleached hair, Type C (Hair nuance test): Brownish black
2 | COCCOc1cc(N)ccc1N [Compound N7, 2-(2-methoxyethoxy)benzene-1,4-diamine] | 0.0080 μg/cm^2 and 0.008 μg/cm^2 | <0.001 % of applied compound dose | 97.5 % of applied compound dose | 0.03 % of applied compound dose | 0.007 % of applied compound dose | 0.09 % of applied compound dose | 0.001 % of applied compound dose | 44.6 | 22 | 2.7 | 4.7 | 13.8 | 4.6 | dark brown colour shade; also recorded: Dark hazelnut | 19 | 4.7 | 3 | 11.2 | 5.1 | Walnut brown | IC50 (HaCaT cells; HaCaT cells, MTT, read-out: IC50): 33.5 µM; Cumulative amount comparison of PPD vs derivatives (times less than PPD) ([1]; 8 h): 675.0; recovery at 8 h, 1 % w/v ([1]; pig, end of 8 h, read-out: Total recovery (mean percentage parent compound recovery)): 97 ± 1.49%; L* (Hair nuance test; [2]): 12.3; a* (Hair nuance test; [2]): −0.7; b* (Hair nuance test; [2]): −4; ΔE (total colour difference to natural hair) (Hair nuance test; [2]): 6.0; ΔH (difference in colour tone) (Hair nuance test; [2]): 5.0; eventual colour of bleached hair, Type C (Hair nuance test): vibrant blue colours; also recorded: Navy blue
